The record followed here is ChEMBL document CHEMBL3525930 (Drug Metab Dispos, 2012).

Data set [1] relates to CYP2B6. Nature of the data set: (§1) Induction of CYP2B6 mRNA expression in human hepatocytes at 10 uM after 72 hrs by RT-PCR analysis relative to vehicle-treated control. The note with it: read-out: FC. It is filed as ADME, cell-based, Hepatocyte.
The test system of data set [2] is Hepatocyte. The data set is described as §1. Type of data set: ADME, cell-based. The settings on record: 72 h, 10 µM.
The next data set has as its system UGT1A9. Nature of the data set: Induction of UGT1A9 mRNA expression in human hepatocytes at 10 uM after 72 hrs by RT-PCR analysis relative to vehicle-treated control. It is filed as ADME, cell-based, Hepatocyte. The settings on record: read-out: FC.
Data set [3] concerns the target T1, Cytochrome P450 3A4 (Homo sapiens, UniProt P08684). Nature of the data set: (§2) Induction of CYP3A4 in human hepatocytes at 10 uM after 72 hrs relative to vehicle-treated control. The note with it: 72 h, 10 µM.
Data set [4] concerns the target CYP3A4 (Homo sapiens, UniProt P08684). The description is as §2.
Another data set deals with CYP1A2. Nature of the data set: Induction of CYP1A2 mRNA expression in human hepatocytes at 10 uM after 72 hrs by RT-PCR analysis relative to vehicle-treated control. It is filed as ADME, cell-based, Hepatocyte. The settings on record: read-out: FC.
For data set [5], the target named is T2, Cytochrome P450 2B6 (Homo sapiens, UniProt P20813).
T2 sequence (P20813 whole entry): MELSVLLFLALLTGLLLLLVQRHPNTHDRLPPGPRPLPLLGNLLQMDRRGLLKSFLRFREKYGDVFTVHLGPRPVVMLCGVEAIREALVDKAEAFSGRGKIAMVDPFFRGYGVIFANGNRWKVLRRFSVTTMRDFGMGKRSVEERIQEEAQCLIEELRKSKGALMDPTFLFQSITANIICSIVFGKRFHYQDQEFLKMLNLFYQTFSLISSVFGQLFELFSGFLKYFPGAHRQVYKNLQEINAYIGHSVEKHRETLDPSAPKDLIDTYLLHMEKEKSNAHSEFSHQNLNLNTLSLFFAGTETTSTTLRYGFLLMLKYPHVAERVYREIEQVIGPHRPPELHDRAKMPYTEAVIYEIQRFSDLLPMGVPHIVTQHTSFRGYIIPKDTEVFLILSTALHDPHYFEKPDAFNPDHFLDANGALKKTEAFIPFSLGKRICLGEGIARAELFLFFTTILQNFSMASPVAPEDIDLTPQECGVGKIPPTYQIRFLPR
The data set can be described thus: Inhibition of recombinant CYP2B6 (unknown origin) incubated for 3 mins prior to NADPH addition measured after 10 mins by LC-MS analysis. It is filed as ADME.

Data set [6] has as its target T2, Cytochrome P450 2B6. Nature of the data set: Inhibition of CYP2B6 in human liver microsomes incubated for 3 mins prior to NADPH addition measured after 10 mins by LC-MS analysis. Type of data set: ADME. On the technique in general: Microsomes from liver hold many membrane-bound enzymes, among them those of drug oxidation.
In the next data set the test system is CYP2D6. Nature of the data set: Induction of CYP2D6 mRNA expression in human hepatocytes at 10 uM after 72 hrs by RT-PCR analysis relative to vehicle-treated control. Type of data set: ADME, cell-based, Hepatocyte. The settings on record: read-out: FC.
Data set [7] concerns the target CYP2C9 (Homo sapiens, UniProt P11712). The data set can be described thus: Induction of CYP2C9 in human hepatocytes at 10 uM after 72 hrs relative to vehicle-treated control. It is filed as ADME, cell-based, Hepatocyte. The note with it: read-out: FC.
In the next data set the test system is UGT2B7. The data set can be described thus: Induction of UGT2B7 mRNA expression in human hepatocytes at 10 uM after 72 hrs by RT-PCR analysis relative to vehicle-treated control. The settings on record: read-out: FC. Type of data set: ADME, cell-based, Hepatocyte.
A further data set relates to CYP2E1. Nature of the data set: Induction of CYP2E1 mRNA expression in human hepatocytes at 10 uM after 72 hrs by RT-PCR analysis relative to vehicle-treated control. Type of data set: ADME, cell-based, Hepatocyte. The note with it: read-out: FC.
In another data set the test system is CYP3A5. The data set can be described thus: Induction of CYP3A5 mRNA expression in human hepatocytes at 10 uM after 72 hrs by RT-PCR analysis relative to vehicle-treated control.
Data set [8] deals with CYP3A4. Nature of the data set: (§3) Induction of CYP3A4 mRNA expression in human hepatocytes at 10 uM after 72 hrs by RT-PCR analysis relative to vehicle-treated control.
Data set [9] concerns Hepatocyte. Described as §3. The settings on record: 72 h, 10 µM.
In data set [10] the target is T1, Cytochrome P450 3A4. Nature of the data set: Inhibition of recombinant CYP3A4 (unknown origin) incubated for 3 mins prior to NADPH addition measured after 3 mins by LC-MS analysis. It is filed as ADME.
The next data set relates to MRP1. The data set can be described thus: Induction of MRP1 mRNA expression in human hepatocytes at 10 uM after 72 hrs by RT-PCR analysis relative to vehicle-treated control. Type of data set: cell-based, Hepatocyte. The note with it: read-out: FC.
Another data set has as its system CYP2C19. The data set can be described thus: Induction of CYP2C19 mRNA expression in human hepatocytes at 10 uM after 72 hrs by RT-PCR analysis relative to vehicle-treated control. Type of data set: ADME, cell-based, Hepatocyte. The settings on record: read-out: FC.
In another data set the test system is CYP2A6. The data set can be described thus: Induction of CYP2A6 mRNA expression in human hepatocytes at 10 uM after 72 hrs by RT-PCR analysis relative to vehicle-treated control. It is filed as ADME, cell-based, Hepatocyte. The settings on record: read-out: FC.
The test system of the next data set is MDR1. Nature of the data set: Induction of MDR1 mRNA expression in human hepatocytes at 10 uM after 72 hrs by RT-PCR analysis relative to vehicle-treated control. Type of data set: ADME, cell-based, Hepatocyte. The settings on record: read-out: FC.
A short description of data set [11]: Chemical stability of the compound in human hepatocyte culture medium assessed as compound remaining at 1 to 50 uM after 24 hrs. The settings on record: read-out: Stability. Type of data set: physicochemical.
Data set [12] has as its system Hepatocyte. Nature of the data set: Cytotoxicity against human hepatocytes assessed as cell viability relative to control. Type of data set: cell-based.
Data set [13] has as its target T2, Cytochrome P450 2B6. Nature of the data set: (§4) Induction of CYP2B6 in human hepatocytes at 10 uM after 72 hrs relative to vehicle-treated control. Type of data set: ADME, cell-based, Hepatocyte. The note with it: 72 h, 10 µM.
In data set [14] the target is CYP2B6 (Homo sapiens, UniProt P20813). The description is as §4. It is filed as ADME, cell-based, Hepatocyte. The note with it: read-out: FC.
For data set [15], the system named is CYP2C9. Nature of the data set: Induction of CYP2C9 mRNA expression in human hepatocytes at 10 uM after 72 hrs by RT-PCR analysis relative to vehicle-treated control. It is filed as ADME, cell-based, Hepatocyte. The note with it: read-out: FC.
In a further data set the test system is MRP2. The data set can be described thus: Induction of MRP2 mRNA expression in human hepatocytes at 10 uM after 72 hrs by RT-PCR analysis relative to vehicle-treated control. The settings on record: read-out: FC. Type of data set: cell-based, Hepatocyte.
Data set [16] addresses T1, Cytochrome P450 3A4. The data set can be described thus: Inhibition of CYP3A4 in human liver microsomes incubated for 3 mins prior to NADPH addition measured after 3 mins by LC-MS analysis. It is filed as ADME.
The subject of the next data set is CYP2C8. Nature of the data set: Induction of CYP2C8 mRNA expression in human hepatocytes at 10 uM after 72 hrs by RT-PCR analysis relative to vehicle-treated control. It is filed as ADME, cell-based, Hepatocyte. The settings on record: read-out: FC.
Data set [17] is described as follows: Chemical stability of the compound in PBS buffer assessed as compound remaining at pH 7.4 after 10 mins. Type of data set: physicochemical. The note with it: read-out: Stability.
For the next data set, the species on record is Homo sapiens. Nature of the data set: Unbound Cmax in human. The note with it: in vivo. It is filed as ADME, organism-based.
For data set [18], the target named is Nuclear receptor subfamily 1 group I member 2 (Homo sapiens, UniProt O75469). Nature of the data set: Activation of human PXR expressed in human LS174T cells. Type of data set: ADME, cell-based.
Nuclear receptor subfamily 1 group I member 2, sequence (O75469 whole entry): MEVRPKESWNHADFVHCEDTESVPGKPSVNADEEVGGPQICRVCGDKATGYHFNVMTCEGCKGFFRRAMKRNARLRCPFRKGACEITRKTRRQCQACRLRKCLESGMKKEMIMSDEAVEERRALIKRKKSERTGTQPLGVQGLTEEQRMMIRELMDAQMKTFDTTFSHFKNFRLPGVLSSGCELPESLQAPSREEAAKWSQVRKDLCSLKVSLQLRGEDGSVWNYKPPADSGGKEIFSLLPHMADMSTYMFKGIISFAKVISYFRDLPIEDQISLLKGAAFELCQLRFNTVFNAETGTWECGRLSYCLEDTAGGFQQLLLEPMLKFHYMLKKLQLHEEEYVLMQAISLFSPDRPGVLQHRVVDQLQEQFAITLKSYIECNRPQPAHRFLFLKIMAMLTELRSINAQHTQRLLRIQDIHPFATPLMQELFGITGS
Data set [19] can be described thus: Total Cmax in human. It is filed as ADME, organism-based. The settings on record: in vivo.

T1 sequence (P08684 whole entry): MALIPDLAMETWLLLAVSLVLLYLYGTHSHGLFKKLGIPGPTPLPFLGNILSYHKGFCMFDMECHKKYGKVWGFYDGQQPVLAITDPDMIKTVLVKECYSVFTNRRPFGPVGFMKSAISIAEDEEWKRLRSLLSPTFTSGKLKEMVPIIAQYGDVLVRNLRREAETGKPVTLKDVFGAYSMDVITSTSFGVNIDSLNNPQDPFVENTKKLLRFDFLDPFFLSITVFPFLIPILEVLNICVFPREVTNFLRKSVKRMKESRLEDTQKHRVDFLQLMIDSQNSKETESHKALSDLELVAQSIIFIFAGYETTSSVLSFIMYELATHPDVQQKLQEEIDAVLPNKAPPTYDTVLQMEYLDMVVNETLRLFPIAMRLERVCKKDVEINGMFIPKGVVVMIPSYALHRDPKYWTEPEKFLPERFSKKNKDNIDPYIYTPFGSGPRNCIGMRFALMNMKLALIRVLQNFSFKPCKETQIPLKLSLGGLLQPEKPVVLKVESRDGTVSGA
CYP2C9 (Homo sapiens, UniProt P11712), sequence (P11712 whole entry): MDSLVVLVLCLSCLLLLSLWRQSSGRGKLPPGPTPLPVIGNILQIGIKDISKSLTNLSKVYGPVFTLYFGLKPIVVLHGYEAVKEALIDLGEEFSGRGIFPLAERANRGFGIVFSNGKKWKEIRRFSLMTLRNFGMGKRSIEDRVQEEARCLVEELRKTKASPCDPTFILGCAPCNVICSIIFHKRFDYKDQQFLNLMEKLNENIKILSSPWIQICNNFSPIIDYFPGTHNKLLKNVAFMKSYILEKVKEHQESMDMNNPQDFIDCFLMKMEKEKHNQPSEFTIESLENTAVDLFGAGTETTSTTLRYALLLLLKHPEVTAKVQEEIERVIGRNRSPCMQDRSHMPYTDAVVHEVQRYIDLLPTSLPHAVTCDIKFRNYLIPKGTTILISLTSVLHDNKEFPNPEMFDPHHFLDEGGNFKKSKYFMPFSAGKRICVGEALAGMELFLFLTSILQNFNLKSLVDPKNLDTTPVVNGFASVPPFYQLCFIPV
CYP3A4 (Homo sapiens, UniProt P08684), sequence (P08684 whole entry): as the sequence (P08684 whole entry) above

What is called IC50 is the point on the concentration scale where inhibition reaches its midpoint. As to `C[C@H]1[C@@H](O)O[C@@H]2O[C@@]3(C)CC[C@H]4[C@H](C)CC[C@@H]1[C@@]24OO3` [ARTENIMOL], the fold induction at 72 h, 10 µM with CYP2B6 [1] came out at 3.5; with UGT1A9 it was 1.4; at CYP3A4 [4], 2.1; with CYP1A2 it was 1.1; with CYP2D6 it was 0.7; at CYP2C9 [7], 1.2. Moreover, the fold induction at 72 h, 10 µM in the data set with UGT2B7 is 0.7; with CYP2E1, 0.6; in the data set on CYP3A5, 1; in the data set with CYP3A4 [8], 3.4; in the data set on MRP1, 0.8; in the data set on CYP2C19, 1.3. The fold induction at 72 h, 10 µM is 2.2 in the data set with CYP2A6; 1 with MDR1; 2.9 on CYP2B6 [14]; 1 in the data set with CYP2C9 [15]; 0.8 with MRP2; 0.8 with CYP2C8. Also, the Activity in the data set on Hepatocyte [2] is 13.9%; on Cytochrome P450 3A4 [3], 5.2%; with Hepatocyte [9] it was 7.7%; with Hepatocyte [12] it was 50 µM; on Cytochrome P450 2B6 [13], 11.3%. Moreover, the 50% inhibitory concentration (IC50) on Cytochrome P450 2B6 [5], against Cytochrome P450 2B6 [6], at Cytochrome P450 3A4 [10] and on Cytochrome P450 3A4 [16] was greater than 125 µM each time. Besides, the remaining at 24 h, up to 50 µM in data set [11] is 8%.

`CO[C@H]1/C=C/O[C@@]2(C)Oc3c(C)c(O)c4c(O)c(c(/C=N/N5CCN(C)CC5)c(O)c4c3C2=O)NC(=O)/C(C)=C\C=C\[C@H](C)[C@H](O)[C@@H](C)[C@@H](O)[C@@H](C)[C@H](OC(C)=O)[C@@H]1C` [RIFAMPIN]: the Activity in the data set with Hepatocyte [12] was less than 50 µM.

Usually EC50 stands for the concentration needed to bring the measured effect to its halfway point. By Cmax is commonly meant the maximum level reached in the sampled fluid or tissue. For the molecule `C[C@@H]1CC[C@H]2[C@@H](C)C(=O)O[C@@H]3O[C@@]4(C)CC[C@@H]1[C@]32OO4` [ARTEMISININ], the remaining at 10 min in data set [17] was less than 15%. Further, the fCmax in the data set filed under Homo sapiens amounted to 0.58 µM. For the same molecule, a half-maximal response in data set [18] (EC50) required 30 µM. In data set [19], the concentration peaked (Cmax) at 1600 nM. Besides, the remaining at 24 h, up to 50 µM in data set [11] worked out at 38%. Besides, in the data set with Hepatocyte [12], the Activity was less than 50 µM.
